Source: publication PMC4912613, “A broad analysis of resistance development in the malaria parasite” (Nature Communications, 2016)
Like-named read-outs stand apart in the source and are kept apart here.

Key:
[1] = test system: TM90C2A (DHFR, folate pathway; compared with 3D7); experiment: Cross-resistance EC50 assay, TM90C2A; assay type: cell-based; details: Plasmodium falciparum, 48 h, read-out: TM90C2A (3D7 Parent) Average EC50
Description: (§1) To evaluate potential overlapping activity against known antimalarial drug targets, we performed dose-response studies with each compound against our assembled set of drug-resistant lines and their corresponding parents, in an asexual blood stage proliferation assay (Table 1). Comparisons were made to the drug-sensitive strain 3D7 when a parent was unavailable (TM90C2A, W2 and Dd2). As laboratories conducted EC50 assays with different strains and protocols, all comparisons were made between assays from the same laboratory and under the same assay conditions. Compounds displaying >5-fold EC50 shifts relative to the parent or sensitive strain were flagged as having potentially non-novel targets. Average fold shifts per strain ranged from 0.82 to 2.34, with a median of 1.23 indicating there was not common resistance to any one resistant clone. No resistance patterns were observed when classifying the compounds based on chemical structure, but this was not surprising given the diversity of compounds chosen. On the other hand, given that these confirmed compounds were derived from larger unconfirmed hit lists to which some filtration criteria may have been applied (for example, elimination of obvious dihydrofolate reductase inhibitors[32]), some[10][11][12][13] pre-existing bias may exist in the set.
(§2) The 48-h assay was carried out in a 96-well format following standard methods using the ^3H-hypoxanthine incorporation assay. The raw EC50 values corresponding to this assay can be found in Supplementary Data 3. Briefly, this assay relies on the parasite incorporation of labelled hypoxanthine that is proportional to P. falciparum growth. A culture of parasitized RBCs (0.5% parasitemia with a percentage of ring stage higher than 70% of total parasitemia, 2.0% haematocrit) in RPMI-1640, […] and 5 μM hypoxanthine was exposed to drug serial dilutions. Plates were incubated for 24 h at 37 °C, 5% CO2, 5% O2 and 90% N2. After 24 h of incubation, ^3H-hypoxanthine was added and plates were incubated for an additional 24-h period. After that, parasites were harvested on a glass fibre filter using a TOMTEC Cell Harvester 96. Filters were dried and melt-on scintillator sheets were used to determine the incorporation of ^3H-hypoxanthine. Radioactivity was measured using a microbeta counter. Data were normalized using the incorporation of the positive (parasitized RBCs without drug) and negative (same culture with artesunate at 2 μM) controls. All assays were conducted in triplicate using three independently grown cultures, and EC50 values were determined using the XLfit add-in module for Excel (version 2.3.1) from Grafit (version 5.3.1.3), where parameter h is the assay hill slope, x is the compound concentration and y is the inhibition of growth effect. The XLfit equation is: […]
EC50 values for each strain were compared with those of the corresponding parent strain to determine fold-shift changes and identify resistance. To minimize the cause variance between assays, all comparisons were conducted between strains assayed under identical conditions. A one-way ANOVA followed by a Dunnet's post-test was conducted in GraphPad Prism to identify significant changes between the parent and resistant strain.

W2 = experiment: Cross-resistance EC50 assay, W2 parent; assay type: cell-based, Plasmodium falciparum; details: Plasmodium falciparum, 48 h, read-out: W2F6 (PARENT) Average EC50
Description: (§3) Multidrug resistance alleles, including mutations in P. falciparum chloroquine resistance transporter (pfcrt) and P. falciparum multi-drug resistance transporter 1 (pfmdr1) are very common in field isolates. Therefore, we sought to assess the degree to which pre-existing resistance alleles would contribute to a loss of potency for this diverse collection of small molecule compounds. Fifteen clones derived from three main parent lines were chosen to maximize diversity in mutated pathways and genetic backgrounds, thus representing the variety of resistance seen in the field: 3D7 (ref. [23]), W2 (ref. [24]) or Dd2 (ref. [25]). The 3D7 line originates from the clone of a Netherlands clinical isolate strain[23][26] and is generally considered to be drug sensitive, though it does convey resistance to sulfadoxine. Conversely, W2 (ref. [24], [27]) and Dd2 (ref. [25]) are multi-drug-resistant lines originating from the Indochina III/CDC isolate, which contain point mutations in pfcrt as well as amplifications in pfmdr1 and GTP cyclohydrolase.
as §1, §2
(§4) Alternatively, a SYBR Green-based proliferation approach was used for the 72-h assay, as previously described. […]

3D7 = experiment: Cross-resistance EC50 assay, 3D7 parent / sensitive strain; assay type: cell-based; details: Plasmodium falciparum, hypoxanthine 48-hour assay, synchronized parasites, 96-well format
Description: as §3, §1, §2, §4

P. falciparum [2] = experiment: Rate of killing (parasite viability) assay; assay type: cell-based, Plasmodium falciparum; details: profile compared with chloroquine, pyrimethamine, atovaquone; 48 h treatment
Method: To identify whether selection success could be predicted by compound speed of action, and to gain a greater insight into the potential mechanisms of action, assays were performed to test the killing rate (Supplementary Data 1)[33]. To quantify the killing rate, viability time-course profiles for each compound were compared with antimalarials known to have fast (chloroquine), moderate (pyrimethamine) or slow (atovaquone) rate of action. These rates were then compared with other compound characteristics, including cross-resistance profile, selection success, potency and structural characteristics to identify any possible trends. […] One compound's rate of killing, MMV666080, was unidentifiable due to compound availability. No correlation was seen between compound structure and speed of action. Additionally, there was no correlation found between killing rate and compound potency against 3D7, nor between potency and selection success (Supplementary Fig. 2).
Rate of killing was determined for each compound following a previously described methodology, which uses the invasion of fresh erythrocytes as surrogate of parasite viability. Briefly, parasites were treated with compounds for 48 h. Compound was washed out and fresh-labelled erythrocytes added to the treated parasites. Double stained erythrocytes (RBC label plus parasite DNA label) were quantified and per cent of survival determined.

[3] = test system: P. berghei exoerythrocytic forms; experiment: Liver-stage P. berghei hepatocyte invasion and development assay (luminescence, HepG2); assay type: cell-based, Plasmodium berghei; details: Plasmodium berghei, HepG2, text values; read-out: Liver stage EC50 (PfLuc EC50)
Description: (§5) As drugs that eliminate multiple stages of the parasite lifecycle will be critical components in global efforts to eliminate malaria, we were interested in knowing whether the compounds in our study had additional activities against either the liver and/or transmission stages of the parasite lifecycle. To determine this, we first evaluated the compounds in additional phenotypic assays. The first assay was a P. berghei hepatocyte invasion and development assay, which predicts causal prophylactic activity. Hepatocyte toxicity was additionally tested to identify false-positive activity in the liver stage due to host-cell toxicity. Assays were executed in duplicate using a 12-point EC50 curve at starting concentrations of 5 μM or 50 μM (Supplementary Table 1).
(§6) Liver-stage activity was determined by pretreating hepatic human cells (HepG2) for 2 h with compound in 1,536-well plates infected with freshly dissected P. berghei sporozoites. After 48 h of incubation, the viability of P. berghei exoerythrocytic forms was measured by luminescence reaction light output using BrightGlo (Promega). Varying levels of compound concentration were used (5 μM or 50 μM) due to the stock concentration supplied.

Hepatocyte toxicity = assay type: cell-based, human; details: human; read-out: HepG2 EC50 (hepatocyte toxicity)
Description: as §5, §6

[4] = test system: Stage 5 gametocytes from P. falciparum NF54; experiment: Late-stage (stage V) gametocyte survival assay, MitoTracker; assay type: cell-based, Plasmodium falciparum; details: Plasmodium falciparum; P. falciparum NF54, 72 h; read-out: Stage 5 Gametocyte EC50
Method: The second assay was a late-stage (stage V) gametocyte survival assay, which predicts transmission-blocking activity. […] Positive and negative control compounds included puromycin (0.61±0.11 μM) and atovaquone (> 12.50 μM), respectively.
To test sexual-stage activity, compounds were tested against late-stage gametocytes using a MitoTracker fluorescent-based assay. Specifically, synchronized stage V gametocytes were incubated with compound for 72 h. MitoTracker Red CMXRos (Life Technologies) was added to each well (final concentration: 500 nM) together with saponin to lyse the RBCs. Each plate was then imaged with an Operetta High Content Imaging System (Perkin Elmer) for fluorescence (590–640 nm). Varying levels of compound concentration were used (1.25 μM or 12.5 μM) due to the stock concentration supplied.
The gametocytocidal activity was measured using high-content image analysis software (Harmony, Perkin Elmer). The readout was based on number of metabolically active gametocytes per well.

P. falciparum [5] = test system: P. falciparum; parameters: method as in PMID 26542470; details: known rate of action; cited from earlier work
[6] = test system: MMV026596-selected cultures (parental line 3D7); experiment: EC50 on cultures selected with MMV026596; assay type: cell-based, Plasmodium falciparum; details: hypersensitivity of cultures after 100 days of MMV026596 selection
Description: While we found an overall lack of pre-existing resistance, analysing the onset of resistance was critical, as compounds resulting in rapid resistance are not ideal for clinical development. We therefore sought to create drug-resistant parasites using a variety of different selection methods. We implemented either a high-dose method or a ramp-up/pulse method for our in vitro selections. Two of the 50 compounds—MMV028895 and MMV665824—were removed from the selection study during experimentation. […] Out of the remaining 48 compounds, resistant parasites were obtained for 23 (Supplementary Data 1). As each selection was performed in triplicate with three independent cultures, we succeeded in generating a total of 66 resistant cultures. Parasites resistant to MMV026596 were not obtained despite 100 days of selection, but the cultures acquired hypersensitivity to mefloquine with a 10-fold reduction in EC50 compared with its parental line, 3D7. For the remaining 24 compounds, acquisition of resistant parasites was unsuccessful despite numerous attempts over an extensive period of time.

`COc1ccc(NC(=O)N2CCCCN3[C@H](CO)[C@H](c4ccc(C#Cc5ccccc5)cc4)[C@@H]3C2)cc1` [BRD3444] gave an EC50 [1] of 37 nM, an EC50 (W2) of 31 nM and an EC50 (3D7; strain 3D7 (parent), read-out: 3D7 (PARENT) Average EC50) of 45 nM. It also gave an EC50 (3D7; strain 3D7-C9-WT (parent of PfATP4 Mut3), read-out: 3D7-C9-WT (PARENT) Average EC50) of 35 nM.

For `Cn1c(C(=O)c2cccc3ccccc23)nc2ccccc21` [MMV665824], the “Killing Rate” value (P. falciparum [2]) was “ATQ (slow)”.

`O=C1C(O)=C([C@H]2CC[C@H](c3ccc(Cl)cc3)CC2)C(=O)c2ccccc21` [atovaquone, reference compound] showed an EC50 [3] of 0.419 ± 0.044 nM, an EC50 (Hepatocyte toxicity) of 7720 ± 1370 nM and an EC50 [4] greater than 12500 nM. The “rate of action of comparator antimalarials” value (P. falciparum [5]) was “slow”.

For `CCN(CC)CCCC(C)Nc1ccnc2cc(Cl)ccc12` (stereo not drawn) [chloroquine], the “rate of action of comparator antimalarials” value (P. falciparum [5]) is given as “fast”.

For `OC(c1cc(C(F)(F)F)nc2c(C(F)(F)F)cccc12)C1CCCCN1` (stereo not drawn) [mefloquine], the “reduction in EC50 compared with parental line 3D7” value [6] was 10 fold.

Compound `COc1ccc(C[C@H](N)C(=O)N[C@H]2[C@@H](O)[C@H](n3cnc4c(N(C)C)ncnc43)O[C@@H]2CO)cc1` [puromycin, reference compound] has an EC50 [3] of 32.7 ± 29.7 nM, an EC50 (Hepatocyte toxicity) of 254 ± 36.6 nM and an EC50 [4] of 610 ± 110 nM.

For `CCc1nc(N)nc(N)c1-c1ccc(Cl)cc1` [pyrimethamine], the “rate of action of comparator antimalarials” value (P. falciparum [5]) is given as “moderate”.
